Laboratory results: patent EP4768499A1, “MACROCYCLIC PEPTIDE COMPOUND HAVING CELL MEMBRANE PERMEABILITY AND METABOLIC STABILITY, AND LIBRARY CONTAINING SAME” (Chugai Seiyaku Kabushiki Kaisha, priority 2023, dated 2025)
Starred links: 1 amine or outer side, 2 acyl side, 3 side chain; linkers in the order of their positions; H or OH if unused. Positions of bridges follow the written chain, without caps; N, C: chain ends. Non-standard residues stand in square brackets, D forms with d. Residues, ends and D or L forms follow the SMILES beside them. *: point of attachment. NMeF = CN[C@@H](Cc1ccccc1)C(=O)O; NMeGABA = CN(CCCC(=O)[*:2])[*:1]; NMeI = CC[C@H](C)[C@H](NC)C(=O)O; NMeT = CN[C@H](C(=O)O)[C@@H](C)O; hPhe = N[C@@H](CCc1ccccc1)C(=O)O; NMeβAla = CN(CCC(=O)[*:2])[*:1]; NMeL = CN[C@@H](CC(C)C)C(=O)O; NMeV = CN[C@H](C(=O)O)C(C)C; d(β3hA) = C[C@@H](N)CC(=O)O; NMeAbu = CC[C@H](NC)C(=O)O; NMeA = CN[C@@H](C)C(=O)O; Piperidide = C1CCN(*)CC1; dNMeA = CN[C@H](C)C(=O)O; Abu = CC[C@H](N)C(=O)O; Sar = CNCC(=O)O; tBu = CC(C)(C)*

Experiments:
[1] = Metabolic stability test: liver microsomal stability assay; type: in vitro ADME, mouse; conditions: mouse liver microsomes 0.5 mg protein/mL, compound 1 µM; for microsomal CLint at 1 µM: male, pH 7.4, presence of NADPH, read-out: Mouse Hepatic Microsome CLh,int NADPH(+); for Mouse Hepatic Microsome CLh,int NADPH(-): absence of NADPH
Caco-2 cells = experiment: Membrane permeability test using Caco-2 cells with preincubation; type: in vitro ADME; conditions: Caco-2 cells, preincubation 20 to 24 hours; apical FaSSIF/HBSS 1% DMSO pH 6.0, basal HBSS 4% BSA pH 7.4; basal sample at 180 minutes
[2] = as above; type: in vitro ADME; conditions: Caco-2; preincubation 20 to 24 hours; Apical FaSSIF/HBSS pH 6.0, Basal HBSS 4% BSA pH 7.4; 180 minutes; read-out: Caco2 Papp

SMILES | microsomal CLint at 1 µM [1] | Mouse Hepatic Microsome CLh,int NADPH(-) [1] | Caco2 Papp (10^-6 cm/sec) (Caco-2 cells) | Papp A→B [2]
CC[C@H](C)[C@H]1C(=O)N2CCC[C@H]2C(=O)N(C)[C@@H](C(C)C)C(=O)N(C)[C@@H](Cc2ccccc2)C(=O)N(C)[C@@H](C)C(=O)N(C)[C@@H](CC(C)C)C(=O)N[C@@H]([C@@H](C)O)C(=O)N(C)[C@@H](C)C(=O)N[C@@H](CCc2ccccc2)C(=O)N(C)[C@@H](CC(C)C)C(=O)N[C@H](C(=O)N2CCCCC2)CC(=O)N(C)CCCC(=O)N(C)[C@@H](CC(C)C)C(=O)N1C [pd124] ([NMeGABA][NMeL][NMeI]P[NMeV][NMeF][NMeA][NMeL]T[NMeA][hPhe][NMeL]D-Piperidide; lactam N-13) | 16.9 µL/min/mg | 16.6 µL/min/mg Protein | 0.13 10^-6 cm/sec | 0.13 ×10⁻⁶ cm/s
CC[C@H](C)[C@H]1C(=O)N(C)[C@@H]([C@@H](C)O)C(=O)N(C)[C@@H](CC)C(=O)N(C)[C@@H](CC(C)C)C(=O)N2CCC[C@H]2C(=O)N[C@H](C(=O)N2CCCCC2)CC(=O)N(C)[C@@H](C)C(=O)N[C@@H](CC(C)C)C(=O)N(C)[C@@H](CC(C)C)C(=O)N(C)[C@@H](C)C(=O)N2CCC[C@H]2C(=O)N[C@@H](CCc2ccccc2)C(=O)N(C)[C@@H](CC(C)C)C(=O)N1C [pd125] ([NMeA]L[NMeL][NMeA]P[hPhe][NMeL][NMeI][NMeT][NMeAbu][NMeL]PD-Piperidide; lactam N-13) | 16.7 µL/min/mg | 18.1 µL/min/mg Protein | 0.13 10^-6 cm/sec | 0.13 ×10⁻⁶ cm/s
CC[C@H]1C(=O)N(C)CC(=O)N[C@@H]([C@@H](C)O)C(=O)N(C)[C@@H](CC(C)C)C(=O)N[C@@H](CC(C)C)C(=O)N(C)[C@@H](Cc2ccccc2)C(=O)N(C)[C@@H](C(C)C)C(=O)N2CCC[C@H]2C(=O)N(C)[C@@H](C)C(=O)N(C)[C@@H](C(C)C)C(=O)N[C@H](C(=O)N2CCCCC2)CC(=O)N(C)[C@@H](CC(C)C)C(=O)N(C)[C@@H](Cc2ccccc2)C(=O)N1C [pd126] ([NMeL][NMeF][NMeAbu][Sar]T[NMeL]L[NMeF][NMeV]P[NMeA][NMeV]D-Piperidide; lactam N-13) | 23.3 µL/min/mg | 18.2 µL/min/mg Protein | 0.88 10^-6 cm/sec | 0.88 ×10⁻⁶ cm/s
CC[C@H](C)[C@@H]1NC(=O)[C@H](CC(C)C)N(C)C(=O)[C@H](CC(C)C)NC(=O)[C@H](C)N(C)C(=O)C[C@@H](C)NC(=O)[C@H](CC(C)C)NC(=O)[C@H](CC(C)C)N(C)C(=O)CN(C)C(=O)[C@H](C(C)C)NC(=O)[C@H]([C@@H](C)CC)N(C)C(=O)[C@H](CC(C)C)N(C)C(=O)[C@H](C)NC(=O)[C@H](Cc2ccccc2)N(C)C1=O [pd127] (cyclo(A[NMeL][NMeI]V[Sar][NMeL]L[d(β3hA)][NMeA]L[NMeL]I[NMeF])) | 41.6 µL/min/mg | 28.0 µL/min/mg Protein | 0.36 10^-6 cm/sec | 0.36 ×10⁻⁶ cm/s
CC[C@@H]1NC(=O)CN(C)C(=O)[C@H]([C@@H](C)O)NC(=O)[C@H](CC(C)C)N(C)C(=O)[C@H](C(C)C)NC(=O)[C@H](Cc2ccccc2)N(C)C(=O)[C@H](C)N(C)C(=O)[C@@H](C)NC(=O)C[C@@H](C)NC(=O)[C@H](C(C)C)N(C)C(=O)[C@H](Cc2ccccc2)N(C)C(=O)[C@H](COC(C)(C)C)NC(=O)[C@H](CC(C)C)N(C)C1=O [pd128] (cyclo([Abu][NMeL]S(tBu)[NMeF][NMeV][d(β3hA)][dA][NMeA][NMeF]V[NMeL]T[Sar])) | 18 µL/min/mg | 11.3 µL/min/mg Protein | 0.05 10^-6 cm/sec | 0.05 ×10⁻⁶ cm/s
CC[C@@H]1NC(=O)[C@H](CC(C)C)N(C)C(=O)[C@H]([C@@H](C)CC)NC(=O)CN(C)C(=O)C[C@@H](C)NC(=O)[C@H](C(C)C)N(C)C(=O)[C@H](COC(C)(C)C)NC(=O)[C@H](CC(C)C)N(C)C(=O)[C@H](Cc2ccccc2)N(C)C(=O)[C@H](CC(C)C)NC(=O)CN(C)C(=O)[C@H]([C@@H](C)O)NC(=O)[C@H](CC(C)C)N(C)C1=O [pd129] (cyclo([Abu][NMeL]T[Sar]L[NMeF][NMeL]S(tBu)[NMeV][d(β3hA)][Sar]I[NMeL])) | 76.5 µL/min/mg | 19.7 µL/min/mg Protein | 0.71 10^-6 cm/sec | 0.71 ×10⁻⁶ cm/s
CC[C@H](C)[C@@H]1NC(=O)[C@H](Cc2ccccc2)N(C)C(=O)[C@H](C(C)C)NC(=O)[C@@H](C)N(C)C(=O)C[C@@H](C)NC(=O)[C@H](C(C)C)N(C)C(=O)[C@H](Cc2ccccc2)N(C)C(=O)[C@H](COC(C)(C)C)NC(=O)[C@H](CC(C)C)N(C)C(=O)[C@H](C)N(C)C(=O)[C@@H]2CCCN2C(=O)[C@H]([C@@H](C)O)NC(=O)[C@H](CC(C)C)N(C)C1=O [pd130] (cyclo(I[NMeL]TP[NMeA][NMeL]S(tBu)[NMeF][NMeV][d(β3hA)][dNMeA]V[NMeF])) | 22.7 µL/min/mg | 6.8 µL/min/mg Protein | 3.88 10^-6 cm/sec | 3.88 ×10⁻⁶ cm/s
CC[C@H]1C(=O)N(C)[C@@H](C)C(=O)N(C)[C@@H](C(C)C)C(=O)N[C@H](C)CC(=O)N[C@H](C(C)C)C(=O)N(C)[C@@H](CC(C)C)C(=O)N[C@@H](CC(C)C)C(=O)N(C)[C@@H](C(C)C)C(=O)N(C)[C@@H](CC(C)C)C(=O)N(C)CC(=O)N[C@@H]([C@@H](C)O)C(=O)N(C)[C@@H](Cc2ccccc2)C(=O)N[C@@H](COC(C)(C)C)C(=O)N1C [pd131] (cyclo(L[NMeV][NMeL][Sar]T[NMeF]S(tBu)[NMeAbu][NMeA][NMeV][d(β3hA)][dV][NMeL])) | 17.8 µL/min/mg | 13.5 µL/min/mg Protein | 2.18 10^-6 cm/sec | 2.18 ×10⁻⁶ cm/s
CC[C@H](C)[C@@H]1NC(=O)[C@H](C)N(C)C(=O)[C@H]([C@@H](C)O)N(C)C(=O)[C@H](CC(C)C)N(C)C(=O)[C@H](C(C)C)NC(=O)[C@H](Cc2ccccc2)N(C)C(=O)[C@H](Cc2ccccc2)N(C)C(=O)[C@H](C)NC(=O)[C@H](CC)N(C)C(=O)[C@H]([C@@H](C)CC)NC(=O)CCCN(C)C(=O)C[C@@H](C)NC(=O)[C@H](C(C)C)N(C)C1=O [pd132] (cyclo(A[NMeF][NMeF]V[NMeL][NMeT][NMeA]I[NMeV][d(β3hA)][NMeGABA]I[NMeAbu])) | 16.2 µL/min/mg | 7.7 µL/min/mg Protein | 0.36 10^-6 cm/sec | 0.36 ×10⁻⁶ cm/s
CC[C@H](C)[C@@H]1NC(=O)[C@H](CCc2ccccc2)NC(=O)[C@H](CC(C)C)N(C)C(=O)[C@H](C)N(C)C(=O)[C@H](Cc2ccccc2)N(C)C(=O)[C@@H]2CCCN2C(=O)[C@H]([C@@H](C)CC)NC(=O)[C@H](CC(C)C)N(C)C(=O)CCN(C)C(=O)C[C@@H](C)NC(=O)[C@H](CC(C)C)N(C)C(=O)[C@H]([C@@H](C)O)NC(=O)[C@H](C)N(C)C1=O [pd133] (cyclo(I[NMeA]T[NMeL][d(β3hA)][NMeβAla][NMeL]IP[NMeF][NMeA][NMeL][hPhe])) | 25.6 µL/min/mg | 23.6 µL/min/mg Protein | 0.53 10^-6 cm/sec | 0.53 ×10⁻⁶ cm/s
CC[C@H](C)[C@@H]1NC(=O)[C@H](CC(C)C)N(C)C(=O)[C@H](C)N(C)C(=O)[C@H](C)N(C)C(=O)C[C@@H](C)NC(=O)[C@H](CC(C)C)NC(=O)[C@H](CC(C)C)N(C)C(=O)CN(C)C(=O)[C@H]([C@@H](C)O)NC(=O)[C@H]([C@@H](C)CC)N(C)C(=O)[C@H](CC(C)C)N(C)C(=O)[C@H](C(C)C)NC(=O)[C@H](Cc2ccccc2)N(C)C1=O [pd134] (cyclo(I[NMeF]V[NMeL][NMeI]T[Sar][NMeL]L[d(β3hA)][NMeA][NMeA][NMeL])) | 38.5 µL/min/mg | 11.4 µL/min/mg Protein | 0.75 10^-6 cm/sec | 0.75 ×10⁻⁶ cm/s
CC[C@H](C)[C@@H]1NC(=O)[C@@H]2CCCN2C(=O)[C@H](C(C)C)N(C)C(=O)[C@@H](C)N(C)C(=O)C[C@@H](C)NC(=O)[C@H](C(C)C)N(C)C(=O)[C@H](Cc2ccccc2)N(C)C(=O)[C@H](COC(C)(C)C)NC(=O)[C@H](CC(C)C)N(C)C(=O)[C@H](C)N(C)C(=O)[C@H](CC(C)C)N(C)C(=O)[C@H]([C@@H](C)O)NC(=O)[C@H](Cc2ccccc2)N(C)C1=O [pd136] (cyclo(I[NMeF]T[NMeL][NMeA][NMeL]S(tBu)[NMeF][NMeV][d(β3hA)][dNMeA][NMeV]P)) | 27.2 µL/min/mg | 28.8 µL/min/mg Protein | 0.53 10^-6 cm/sec | 0.53 ×10⁻⁶ cm/s
CC[C@H](C)[C@@H]1NC(=O)[C@H](C)N(C)C(=O)CCCN(C)C(=O)C[C@@H](C)NC(=O)[C@H](C(C)C)N(C)C(=O)[C@H](CCc2ccccc2)NC(=O)[C@H](C)N(C)C(=O)[C@H]([C@@H](C)O)N(C)C(=O)[C@H](CC(C)C)N(C)C(=O)[C@H](C(C)C)NC(=O)[C@H](Cc2ccccc2)N(C)C(=O)[C@H](C)N(C)C(=O)[C@H](C(C)C)N(C)C1=O [pd137] (cyclo(I[NMeV][NMeA][NMeF]V[NMeL][NMeT][NMeA][hPhe][NMeV][d(β3hA)][NMeGABA][NMeA])) | 14.1 µL/min/mg | 7.5 µL/min/mg Protein | 0.55 10^-6 cm/sec | 0.55 ×10⁻⁶ cm/s
